Assay results from patent US8754068B2, “Modified C-3 betulinic acid derivatives as HIV maturation inhibitors” (priority 2010, dated 2014).

Tested on: recombinant NL4-3 virus (Renilla luciferase in nef, Gag P373S)
Assay: HIV cell culture assay (luciferase reporter virus in MT-2 cells)
Type: cell-based
Details: NL43
Description: HIV cell culture assay—MT-2 cells and 293T cells were obtained from the NIH AIDS Research and Reference Reagent Program. MT-2 cells were propagated in RPMI 1640 media supplemented with 10% heat inactivated fetal bovine serum, […]. The 293T cells were propagated in DMEM media supplemented with 10% heat inactivated fetal bovine serum (FBS), 100 units/ml penicillin G and 100 μg/ml streptomycin. The proviral DNA clone of NL4-3 was obtained from the NIH AIDS Research and Reference Reagent Program. A recombinant NL4-3 virus, in which a section of the nef gene from NL4-3 was replaced with the Renilla luciferase gene, was used as a reference virus. In addition, residue Gag P373 was converted to P373S. Briefly, the recombinant virus was prepared by transfection of the altered proviral clone of NL4-3. Transfections were performed in 293T cells using LipofectAMINE PLUS from Invitrogen (Carlsbad, Calif.), according to manufacturer's instruction. The virus was titered in MT-2 cells using luciferase enzyme activity as a marker. Luciferase was quantitated using the Dual Luciferase kit from Promega (Madison, Wis.), with modifications to the manufacturer's protocol. The diluted Passive Lysis solution was pre-mixed with the re-suspended Luciferase Assay Reagent and the re-suspended Stop & Glo Substrate (2:1:1 ratio). Fifty (50) μL of the mixture was added to each aspirated well on assay plates and luciferase activity was measured immediately on a Wallac TriLux (Perkin-Elmer). Antiviral activities of inhibitors toward the recombinant virus were quantified by measuring luciferase activity in cells infected for 4-5 days with NLRluc recombinants in the presence serial dilutions of the inhibitor. Table 1 is the key for the data in Table 2.

| Compound | EC50 [nM] |
| --- | --- |
| CC(C)[C@@H]1CC[C@]2(C(=O)O)CC[C@]3(C)[C@H](CC[C@@H]4[C@@]5(C)CC[C@H](c6cccc(C(=O)O)c6)C(C)(C)[C@@H]5CC[C@]43C)[C@@H]12 [Example 3a, (3aS,5aR,5bR,7aS,9S,11aS,13aR,13bR)-9-(3-carboxyphenyl)-1-isopropyl-5a,5b,8,8,11a-pentamethylicosahydro-1H-cyclopenta[a]chrysene-3a-carboxylic acid] | 2000 |
| C=C(C)[C@@H]1CC[C@]2(CO)CC[C@]3(C)[C@H](CC[C@@H]4[C@@]5(C)CC=C(c6ccc(O)c(Cl)c6)C(C)(C)[C@@H]5CC[C@]43C)[C@@H]12 [Example 5g, 2-chloro-4-((1R,3aS,5aR,5bR,7aR,11aS,11bR,13aR,13bR)-3a-(hydroxymethyl)-5a,5b,8,8,11a-pentamethyl-1-(prop-1-en-2-yl)-2,3,3a,4,5,5a,5b,6,7,7a,8,11,11a,11b,12,13,13a,13b-octadecahydro-1H-cyclopenta[a]chrysen-9-yl)phenol] | > 1000 |
| C=C(C)[C@@H]1CC[C@]2(C(=O)O)CC[C@]3(C)[C@H](CC[C@@H]4[C@@]5(C)CC=C(c6ccc(C(=O)NS(C)(=O)=O)cc6)C(C)(C)[C@@H]5CC[C@]43C)[C@@H]12 [Example 6b, (1R,3aS,5aR,5bR,7aR,11aS,13aR,13bR)-5a,5b,8,8,11a-pentamethyl-9-(4-(methylsulfonylcarbamoyl)phenyl)-1-(prop-1-en-2-yl)-2,3,3a,4,5,5a,5b,6,7,7a,8,11,11a,11b,12,13,13a,13b-octadecahydro-1H-cyclopenta[a]chrysene-3a-carboxylic acid] | < 1000 |
| C=C(C)[C@@H]1CC[C@]2(CO)CC[C@]3(C)[C@H](CC[C@@H]4[C@@]5(C)CC=C(c6csc(C(=O)O)c6)C(C)(C)[C@@H]5CC[C@]43C)[C@@H]12 [Example 5d, 4-((1R,3aS,5aR,5bR,7aR,11aS,11bR,13bR)-3a-(hydroxymethyl)-5a,5b,8,8,11a-pentamethyl-1-(prop-1-en-2-yl)-2,3,3a,4,5,5a,5b,6,7,7a,8,11,11a,11b,12,13,13a,13b-octadecahydro-1H-cyclopenta[a]chrysen-9-yl)thiophene-2-carboxylic acid] | < 1000 |
| C=C(C)[C@@H]1CC[C@]2(C(=O)O)CC[C@]3(C)[C@H](CC[C@@H]4[C@@]5(C)CC=C(c6ccccc6CCC(=O)O)C(C)(C)[C@@H]5CC[C@]43C)[C@@H]12 [Example 4l, (1R,3aS,5aR,5bR,7aR,11aS,11bR,13aR,13bR)-9-(2-(2-carboxyethyl)phenyl)-5a,5b,8,8,11a-pentamethyl-1-(prop-1-en-2-yl)-2,3,3a,4,5,5a,5b,6,7,7a,8,11,11a,11b,12,13,13a,13b-octadecahydro-1H-cyclopenta[a]chrysene-3a-carboxylic acid] | > 1000 |
| C=C(C)[C@@H]1CC[C@]2(C(=O)O)CC[C@]3(C)[C@H](CC[C@@H]4[C@@]5(C)CC=C(c6cccc(NS(C)(=O)=O)c6)C(C)(C)[C@@H]5CC[C@]43C)[C@@H]12 [Example 4g, (1R,3aS,5aR,5bR,7aR,11aS,11bR,13aR,13bR)-5a,5b,8,8,11a-pentamethyl-9-(3-(methylsulfonamido)phenyl)-1-(prop-1-en-2-yl)-2,3,3a,4,5,5a,5b,6,7,7a,8,11,11a,11b,12,13,13a,13b-octadecahydro-1H-cyclopenta[a]chrysene-3a-carboxylic acid] | > 1000 |
| C=C(C)[C@@H]1CC[C@]2(CO)CC[C@]3(C)[C@H](CC[C@@H]4[C@@]5(C)CC=C(c6ccc(O)nc6)C(C)(C)[C@@H]5CC[C@]43C)[C@@H]12 [Example 5e, 5-((1R,3aS,5aR,5bR,7aR,11aS,13aR,13bR)-3a-(hydroxymethyl)-5a,5b,8,8,11a-pentamethyl-1-(prop-1-en-2-yl)-2,3,3a,4,5,5a,5b,6,7,7a,8,11,11a,11b,12,13,13a,13b-octadecahydro-1H-cyclopenta[a]chrysen-9-yl)pyridin-2-ol] | > 1000 |
| C=C(C)[C@@H]1CC[C@]2(C(=O)O)CC[C@]3(C)[C@H](CC[C@@H]4[C@@]5(C)CC=C(c6cccc(S(=O)(=O)NC)c6)C(C)(C)[C@@H]5CC[C@]43C)[C@@H]12 [Example 4e, (1R,3aS,5aR,5bR,7aR,11aS,11bR,13aR,13bR)-5a,5b,8,8,11a-pentamethyl-9-(3-(N-methylsulfamoyl)phenyl)-1-(prop-1-en-2-yl)-2,3,3a,4,5,5a,5b,6,7,7a,8,11,11a,11b,12,13,13a,13b-octadecahydro-1H-cyclopenta[a]chrysene-3a-carboxylic acid] | < 1000 |
| C=C(C)[C@@H]1CC[C@]2(C(=O)O)CC[C@]3(C)[C@H](CC[C@@H]4[C@@]5(C)CC=C(c6ccc(C(=O)OC)cc6)C(C)(C)[C@@H]5CC[C@]43C)[C@@H]12 [Example 7, (1R,3aS,5aR,5bR,7aR,11aS,11bR,13aR,13bR)-9-(4-(methoxycarbonyl)phenyl)-5a,5b,8,8,11a-pentamethyl-1-(prop-1-en-2-yl)-2,3,3a,4,5,5a,5b,6,7,7a,8,11,11a,11b,12,13,13a,13b-octadecahydro-1H-cyclopenta[a]chrysene-3a-carboxylic acid] | > 1000 |
| CC(C)[C@@H]1CC[C@]2(CO)CC[C@]3(C)[C@H](CC[C@@H]4[C@@]5(C)CC=C(c6ccc(C(=O)O)cc6)C(C)(C)[C@@H]5CC[C@]43C)[C@@H]12 [Example 10, 4-((1S,3aS,5aR,5bR,7aR,11aS,11bR,13aR,13bR)-3a-(hydroxymethyl)-1-isopropyl-5a,5b,8,8,11a-pentamethyl-2,3,3a,4,5,5a,5b,6,7,7a,8,11,11a,11b,12,13,13a,13b-octadecahydro-1H-cyclopenta[a]chrysen-9-yl)benzoic acid] | < 1000 |
| CC1(C)CC[C@]2(C(=O)O)CC[C@]3(C)C(=CC[C@@H]4[C@@]5(C)CC=C(c6ccc(C(=O)O)cc6)C(C)(C)[C@@H]5CC[C@]43C)[C@@H]2C1 [Example 13, (4aS,6aS,6bR,8aR,12aS,12bR,14bS)-10-(4-carboxyphenyl)-2,2,6a,6b,9,9,12a-heptamethyl-1,2,3,4,4a,5,6,6a,6b,7,8,8a,9,12,12a,12b,13,14b-octadecahydropicene-4-a-carboxylic acid] | < 1000 |
| C=C(C)[C@@H]1CC[C@]2(CO)CC[C@]3(C)[C@H](CC[C@@H]4[C@@]5(C)CC=C(c6cnc(C(=O)O)nc6)C(C)(C)[C@@H]5CC[C@]43C)[C@@H]12 [Example 5q, 5-((1R,3aS,5aR,5bR,7aR,11aS,11bR,13aR,13bR)-3a-(hydroxymethyl)-5a,5b,8,8,11a-pentamethyl-1-(prop-1-en-2-yl)-2,3,3a,4,5,5a,5b,6,7,7a,8,11,11a,11b,12,13,13a,13b-octadecahydro-1H-cyclopenta[a]chrysen-9-yl)pyrimidine-2-carboxylic acid] | > 1000 |
| C=C(C)[C@@H]1CC[C@]2(C(=O)O)CC[C@]3(C)[C@H](CC[C@@H]4[C@@]5(C)CC=C(c6ccc(O)cc6)C(C)(C)[C@@H]5CC[C@]43C)[C@@H]12 [Example 4f, (1R,3aS,5aR,5bR,7aR,11aS,11bR,13aR,13bR)-9-(4-hydroxyphenyl)-5a,5b,8,8,11a-pentamethyl-1-(prop-1-en-2-yl)-2,3,3a,4,5,5a,5b,6,7,7a,8,11,11a, 11b,12,13,13a,13b-octadecahydro-1H-cyclopenta[a]chrysene-3a-carboxylic acid] | < 1000 |
| C=C(C)[C@@H]1CC[C@]2(C(=O)O)CC[C@]3(C)[C@H](CC[C@@H]4[C@@]5(C)CC=C(c6ccc(C(=O)NS(=O)(=O)C(C)C)cc6)C(C)(C)[C@@H]5CC[C@]43C)[C@@H]12 [Example 6a, (1R,3aS,5aR,5bR,7aR,11aS,13aR,13bR)-9-(4-(isopropylsulfonylcarbamoyl)phenyl)-5a,5b,8,8,11a-pentamethyl-1-(prop-1-en-2-yl)-2,3,3a,4,5,5a,5b,6,7,7a,8,11,11a,11b,12,13,13a,13b-octadecahydro-1H-cyclopenta[a]chrysene-3a-carboxylic acid] | < 1000 |
| C=C(C)[C@@H]1CC[C@]2(CO)CC[C@]3(C)[C@H](CC[C@@H]4[C@@]5(C)CC=C(c6ccc(C(=O)O)c(O)c6)C(C)(C)[C@@H]5CC[C@]43C)[C@@H]12 [Example 5p, 2-hydroxy-4-((1R,3aS,5aR,5bR,7aR,11aS,11bR,13aR,13bR)-3a-(hydroxymethyl)-5a,5b,8,8,11a-pentamethyl-1-(prop-1-en-2-yl)-2,3,3a,4,5,5a,5b,6,7,7a,8,11,11a,11b,12,13,13a,13b-octadecahydro-1H-cyclopenta[a]chrysen-9-yl)benzoic acid] | < 1000 |
| C=C(C)[C@@H]1CC[C@]2(C(=O)O)CC[C@]3(C)[C@H](CC[C@@H]4[C@@]5(C)CC=C(c6ccc(C(=O)O)s6)C(C)(C)[C@@H]5CC[C@]43C)[C@@H]12 [Example 4n, 5-((1R,3aS,5aR,5bR,7aR,11aS,11bR,13aR,13bR)-3a-carboxy-5a,5b,8,8,11a-pentamethyl-1-(prop-1-en-2-yl)-2,3,3a,4,5,5a,5b,6,7,7a,8,11,11a,11b,12,13,13a,13b-octadecahydro-1H-cyclopenta[a]chrysen-9-yl)thiophene-2-carboxylic acid] | < 1000 |
